# Where two headings read alike, the source gives them in different places.
# Assays:
# Lck = details: read-out: IC50 Lck; cited from earlier work
# Fit3 = details: @ 15 nM; cited from earlier work
# [1] = assay type: in vivo, human
# bone marrow blasts = assay: Phase 1: efficacy; assay type: in vivo, human
# [2] = Phase 1: plasma pharmacokinetics, Cycle 1; assay type: in vivo, human; details: for clearance / Tmax / AUC(0-inf) / Cmax: human
# RSK-1 = details: read-out: IC50 RSK-1; cited from earlier work
# Aurora B = details: @ 3 nM; cited from earlier work
# Aurora A = details: @ 3 nM; cited from earlier work
# Src = details: read-out: IC50 Src; cited from earlier work
# [3] = test system: aurora kinase B substrate pHH3; assay: Western blot of PBMCs from patient blood; assay type: in vivo, human
# c-kit = details: @ 250 nM; cited from earlier work
# AML = details: eight of 32 adult AML patients; cited from earlier work
# [4] = plasma, intravenous, 144 mg/m^2
# [5] = plasma, intravenous, 160 mg/m^2
# [6] = plasma, intravenous, 200 mg/m^2
# [7] = plasma, intravenous, 216 mg/m^2
smiles,measurement,setting,value
O=C(Nc1c[nH]nc1-c1nc2ccc(CN3CCOCC3)cc2[nH]1)NC1CC1 [AT9283],IC50,Lck,0.063 µM
same,inhibition of Fit3,Fit3,57% @ 15 nM
same,deaths,[1]; 13 deaths of 48 patients,27%
same,MTD,[1]; 72-hour continuous infusion every 21 days,324 mg/m^2/72h
same,MTD,[1]; 72-hour infusion,108 mg/m^2/day
same,AE incidence overall: constipation,"[1]; human, in vivo",21%
same,AE incidence overall: diarrhea,"[1]; human, in vivo",29%
same,AE incidence overall: epistaxis,"[1]; human, in vivo",17%
same,AE incidence overall: fatigue,"[1]; human, in vivo",27%
same,AE incidence overall: febrile neutropenia,"[1]; human, in vivo",25%
same,AE incidence overall: gastrointestinal disorders,"[1]; human, in vivo",75%
same,AE incidence overall: headache,"[1]; human, in vivo",21%
same,AE incidence overall: nausea,"[1]; human, in vivo",29%
same,AE incidence overall: peripheral edema,"[1]; human, in vivo",25%
same,AE incidence overall: pneumonia,"[1]; human, in vivo",29%
same,AT9283-related AE incidence: alopecia,"[1]; human, in vivo",8%
same,AT9283-related AE incidence: nausea,"[1]; human, in vivo",15%
same,AT9283-related AE incidence: stomatitis,"[1]; human, in vivo",13%
same,incidence of cardiac tachyarrythmias,"[1]; human, in vivo",15%
same,patients withdrawn after treatment due to AEs,"[1]; human, in vivo",15%
same,incidence of AEs (highest),"[1]; human, in vivo, 72 h",100%
same,incidence of AEs (lowest),"[1]; human, in vivo, 72 h",29%
same,DLTs,[1]; in vivo,"myocardial infarction, hypertension, cardiomyopathy, tumor lysis syndrome, pneumonia, and multiorgan failure"
same,left ventricular ejection fraction (LVEF) after severe drop,[1]; in vivo,20–25%
same,tolerability of regimen,[1]; in vivo,unacceptably toxic
same,reduction in bone marrow blasts,"bone marrow blasts; Patient B, MTD 108 mg/m^2/day over 72h, 2 cycles, 62% at baseline v 32% at follow-up",48%
same,objective remission (complete and partial),bone marrow blasts; all patients,no objective or partial remissions were observed
same,reduction in bone marrow blasts,bone marrow blasts; approximately one-third of patients with relapsed/refractory AML,≥ 38%
same,benefit in accelerated phase CML,"bone marrow blasts; both patients with accelerated phase CML, cytogenetic response in 1",evidence of benefit
same,benefit in myeloproliferative disease,bone marrow blasts; patients with myeloproliferative disease,no sustained evidence of treatment benefit
same,dose proportionality of exposure,[2]; Cmax and AUC0-inf,generally proportional to dose
same,clearance,[2]; in vivo,5.36 mL/min/kg
same,Tmax,"[2]; in vivo, Tmax",53.8 h
same,Tmax,"[2]; in vivo, Tmax of mean maximum plasma concentrations",41 to 62 h
same,AUC(0-inf),"[2]; plasma, intravenous, 9 mg/m^2",465 ng·h/mL
same,Cmax,"[2]; plasma, intravenous, 9 mg/m^2",7.35 ng/mL
same,clearance,"[2]; plasma, intravenous, 9 mg/m^2",9.52 mL/min/kg
same,Tmax,"[2]; plasma, intravenous, 9 mg/m^2, Tmax, Cycle 1 mean plasma, 9 mg/m^2, 72 hr infusion (n=3)",47.2 h
same,AUC(0-inf),"[2]; plasma, intravenous, 18 mg/m^2",1070 ng·h/mL
same,Cmax,"[2]; plasma, intravenous, 18 mg/m^2",18.1 ng/mL
same,clearance,"[2]; plasma, intravenous, 18 mg/m^2",7.17 mL/min/kg
same,Tmax,"[2]; plasma, intravenous, 18 mg/m^2, Tmax, Cycle 1 mean plasma, 18 mg/m^2, 72 hr infusion (n=3)",62 h
same,AUC(0-inf),"[2]; plasma, intravenous, 36 mg/m^2",2860 ng·h/mL
same,Cmax,"[2]; plasma, intravenous, 36 mg/m^2",41.1 ng/mL
same,clearance,"[2]; plasma, intravenous, 36 mg/m^2",6.03 mL/min/kg
same,Tmax,"[2]; plasma, intravenous, 36 mg/m^2, Tmax, Cycle 1 mean plasma, 36 mg/m^2, 72 hr infusion (n=7)",53.2 h
same,AUC(0-inf),"[2]; plasma, intravenous, 72 mg/m^2",16300 ng·h/mL
same,Cmax,"[2]; plasma, intravenous, 72 mg/m^2",131 ng/mL
same,clearance,"[2]; plasma, intravenous, 72 mg/m^2",1.84 mL/min/kg
same,Tmax,"[2]; plasma, intravenous, 72 mg/m^2, Tmax, Cycle 1 mean plasma, 72 mg/m^2, 72 hr infusion (n=3)",46.7 h
same,AUC(0-inf),[2]; [4],14300 ng·h/mL
same,Cmax,[2]; [4],229 ng/mL
same,clearance,[2]; [4],4.27 mL/min/kg
same,Tmax,"[2]; plasma, intravenous, 144 mg/m^2, Tmax, Cycle 1 mean plasma, 144 mg/m^2, 72 hr infusion (n=4)",54.7 h
same,AUC(0-inf),[2]; [5],13700 ng·h/mL
same,Cmax,[2]; [5],164 ng/mL
same,clearance,[2]; [5],5.61 mL/min/kg
same,Tmax,"[2]; plasma, intravenous, 160 mg/m^2, Tmax, Cycle 1 mean plasma, 160 mg/m^2, 96 hr infusion (n=12)",59.3 h
same,AUC(0-inf),[2]; [6],19100 ng·h/mL
same,Cmax,[2]; [6],184 ng/mL
same,clearance,[2]; [6],4.58 mL/min/kg
same,Tmax,"[2]; plasma, intravenous, 200 mg/m^2, Tmax, Cycle 1 mean plasma, 200 mg/m^2, 120 hr infusion (n=4)",69 h
same,AUC(0-inf),[2]; [7],13000 ng·h/mL
same,Cmax,[2]; [7],228 ng/mL
same,clearance,[2]; [7],7.13 mL/min/kg
same,Tmax,"[2]; plasma, intravenous, 216 mg/m^2, Tmax, Cycle 1 mean plasma, 216 mg/m^2, 72 hr infusion (n=3)",41.3 h
same,Cmax,"[2]; plasma, intravenous, 486 mg/m^2",1280 ng/mL
same,Tmax,"[2]; plasma, intravenous, 486 mg/m^2, Tmax, Cycle 1 mean plasma, 486 mg/m^2, 72 hr infusion (n=3)",51 h
same,inhibition of Aurora B,Aurora B,58% @ 3 nM
same,inhibition of Aurora A,Aurora A,52% @ 3 nM
same,IC50,Src,0.097 µM
same,pHH3 phosphorylation in PBMCs,"[3]; 3 mg/m^2/day (9 mg/m^2/72h), two of three patients",inhibition of pHH3 phosphorylation was observed
same,phosphorylation of aurora kinase B substrate pHH3 in PBMCs,"[3]; MTD 108 mg/m^2/day (324 mg/m^2/72h), two of three patients",rapid inhibition of phosphorylation
same,inhibition of c-kit,c-kit,46% @ 250 nM
CCN(CCCOc1ccc2c(Nc3cc(CC(=O)Nc4cccc(F)c4)n[nH]3)ncnc2c1)CCOP(=O)(O)O [AZD1152],haematologic response according to IWG AML criteria,AML,25%
